Measurements: US20250154525A1, “PLANT VIRUS MOVEMENT PROTEINS AND METHODS OF USING SAME” (Molecular Transfer, Inc., priority 2016, published 2025)

Experiments:
some examined cell types = experiment: Summary of Example 1: transfection expression and % cells transfected over the no peptide control; format: cell-based; settings: on some examined cell types
Protocol: (§1) Cells were plated to so that on the day of transfection the cells were 70% confluent in 96 well tissue culture plates. A DOMTA/DOPE Lipid solution (1:1 molar ratio) at 2 mg/mL in water were mixed with an equal volume cell surface ligand containing adhesion peptide, the plant virus movement protein, or peptide derived therefrom, that had the nucleic acid binding moiety RRRRRRRRRRRR (SEQ ID NO:109) or KKKKKKKKKKKKKKKK (SEQ ID NO: 102) covalently linked to the N-terminus, or C-terminus of each peptide during peptide synthesis. Peptides were at 2 mg/mL in water. The DOTMA/DOPE and the solution containing the cell surface ligand containing adhesion peptide, the plant virus movement protein, or peptide derived therefrom, surface ligand peptide the was diluted 1 to 1 (v/v) in water. DOMTA/DOPE/PEPTIDE solutions were added to 0.1 mL of a plasmid DNA solution (EF1Alpha eGFP plasmid) at 10 μg/mL in OptiMEM.
(§2) All solutions were at room temperature. A volume of 0.2 mL of a 10 μg/mL solution of DNA was aliquoted into each well of a non-tissue cultured treated plate. 1-12 μL of transfection reagents were added to DNA solutions respectively. The transfection reagent and DNA solution was mixed by pipetting up and down twice. Transfection complexes were formed for 10 minutes. After 10 minutes, 0.01 or 0.02 mL of the transfection complex was added to cells. HuVEC, HeLa, human adult keratinocytes, human primary adult fibroblast, and A549 cells all respectively received 0.01 mL of the transfection complex. Human skeletal muscle cells, mouse C2C12 cells, and Jurkat, cells received 0.02 mL of the transfection complex. Cells were incubated for 42 hours at 37° C. at 5% CO2. Plates were read on a fluorescent plate reader. Cells were also examined visually under a microscope to assess the extent of transfection (in terms of the percent of cells transfected) with a fluorescent microscope. Other modes of analysis, for example quantification with B-galactocidase or luciferase reports plasmids can also be used.
(§3) Surface ligand that caused increase expression of GFP over the lipid DOTMA with no surface ligand were considered to enhance transfection or had higher % cells transfected were considered to enhance transfection. Peptides that gave greater than 2-fold enhancement are noted in bold and could be further optimized by adding different transfection enhancers or could be used with different cationic lipids or polymers.

C2C12 Cells = experiment: GFP plasmid transfection with DOTMA/DOPE plus surface ligand peptide, fluorescent plate reader (Example 1); format: cell-based, mouse; settings: DOTMA/DOPE + peptide linked to R12 or K16; EF1Alpha eGFP plasmid; 42 hours
Protocol: as §1, §2, §3
(§4) Tables 2-7, below, provide the results of the transfection enhancements with the various cell types, while Table 8 lists the peptides that were determined by visual inspection to enhance the transfection of the denoted cell lines over the lipid DOTMA.

Jurkat Cells = experiment: as above; format: cell-based; settings: DOTMA/DOPE + peptide linked to R12 or K16; EF1Alpha eGFP plasmid; 42 hours
Protocol: as §1, §2, §3, §4

HuVec Cells = experiment: as above; format: cell-based; settings: DOTMA/DOPE + peptide linked to R12 or K16; EF1Alpha eGFP plasmid; 42 hours
Protocol: as §1, §2, §3, §4

Human Fibroblast Cells = experiment: as above; format: cell-based; settings: DOTMA/DOPE + peptide linked to R12 or K16; EF1Alpha eGFP plasmid; 42 hours
Protocol: as §1, §2, §3, §4

NL-1 iPS Cells = experiment: as above; format: cell-based; settings: DOTMA/DOPE + peptide linked to R12 or K16; EF1Alpha eGFP plasmid; 42 hours
Protocol: as §1, §2, §3, §4

HeLa Cells [1] = experiment: as above; format: cell-based; settings: DOTMA/DOPE + peptide linked to R12 or K16; EF1Alpha eGFP plasmid; 42 hours
Protocol: as §1, §2, §3, §4

HeLa Cells [2] = experiment: GFP transfection with DOTMA/SEQ ID NO: 72 (fusogenic peptide)/peptide compared with Lipofectamine 2000; format: cell-based
Protocol: as §1, §2
The fusogenic peptide was added to the DOMTA/peptide formulation to achieve a final concentration of 0.1 mg/mL to see if transfection reagents were further enhanced by the addition of a fusogenic peptide and could provide higher transfection efficiency into HeLa cells and expression than the commercially available Lipofectamine 2000.

226 (ANGQTPIQRYIK) [compound 226]
transfection expression and % cells transfected over the no peptide control (some examined cell types): increased transfection expression and the % cells transfected
Relative Fluorescence of Transfection of C2C12 Cells (RF) (C2C12 Cells): 1664
Relative Fluorescence of Transfection of Jurkat Cells (RF) (Jurkat Cells): 12976
Relative Fluorescence of Transfection of HuVec Cells (RF) (HuVec Cells): 20864
Relative Fluorescence of Transfection of Human Fibroblast Cells (RF) (Human Fibroblast Cells): 3431
Relative Fluorescence of Transfection of NL-1 iPS Cells (RF) (NL-1 iPS Cells): 24920
Relative Fluorescence of Transfection of HeLa Cells (RF) (HeLa Cells [1]): 7340

338 (GTPGPQGIA) [compound 338]
transfection expression and % cells transfected over the no peptide control (some examined cell types): increased transfection expression and the % cells transfected
Relative Fluorescence of Transfection of C2C12 Cells (RF) (C2C12 Cells): 2290
Relative Fluorescence of Transfection of Jurkat Cells (RF) (Jurkat Cells): 4475
Relative Fluorescence of Transfection of HuVec Cells (RF) (HuVec Cells): 12000
Relative Fluorescence of Transfection of Human Fibroblast Cells (RF) (Human Fibroblast Cells): 5625
Relative Fluorescence of Transfection of NL-1 iPS Cells (RF) (NL-1 iPS Cells): 17288
Relative Fluorescence of Transfection of HeLa Cells (RF) (HeLa Cells [1]): 6241

354 (SINNTAVMQRLT) [compound 354]
transfection expression and % cells transfected over the no peptide control (some examined cell types): increased transfection expression and the % cells transfected
Relative Fluorescence of Transfection of C2C12 Cells (RF) (C2C12 Cells): 1912
Relative Fluorescence of Transfection of Jurkat Cells (RF) (Jurkat Cells): 16705
Relative Fluorescence of Transfection of HuVec Cells (RF) (HuVec Cells): 19284
Relative Fluorescence of Transfection of Human Fibroblast Cells (RF) (Human Fibroblast Cells): 4998
Relative Fluorescence of Transfection of NL-1 iPS Cells (RF) (NL-1 iPS Cells): 24043
Relative Fluorescence of Transfection of HeLa Cells (RF) (HeLa Cells [1]): 4403

216 (YRVRVTPKEKTGPMKE) [compound 216]
transfection expression and % cells transfected over the no peptide control (some examined cell types): increased transfection expression and the % cells transfected
Relative Fluorescence of Transfection of C2C12 Cells (RF) (C2C12 Cells): 1001
Relative Fluorescence of Transfection of Jurkat Cells (RF) (Jurkat Cells): 3570
Relative Fluorescence of Transfection of HuVec Cells (RF) (HuVec Cells): 14693
Relative Fluorescence of Transfection of Human Fibroblast Cells (RF) (Human Fibroblast Cells): 3117
Relative Fluorescence of Transfection of NL-1 iPS Cells (RF) (NL-1 iPS Cells): 19626
Relative Fluorescence of Transfection of HeLa Cells (RF) (HeLa Cells [1]): 6181

349 (RNIAEIIKDI) [compound 349]
transfection expression and % cells transfected over the no peptide control (some examined cell types): increased transfection expression and the % cells transfected
Relative Fluorescence of Transfection of Jurkat Cells (RF) (Jurkat Cells): 23167
Relative Fluorescence of Transfection of HuVec Cells (RF) (HuVec Cells): 22907
Relative Fluorescence of Transfection of Human Fibroblast Cells (RF) (Human Fibroblast Cells): 8810
Relative Fluorescence of Transfection of NL-1 iPS Cells (RF) (NL-1 iPS Cells): 33103
Relative Fluorescence of Transfection of HeLa Cells (RF) (HeLa Cells [1]): 4433

230 (WQPPRARI) [compound 230]
transfection expression and % cells transfected over the no peptide control (some examined cell types): increased transfection expression and the % cells transfected
Relative Fluorescence of Transfection of C2C12 Cells (RF) (C2C12 Cells): 2606
Relative Fluorescence of Transfection of Jurkat Cells (RF) (Jurkat Cells): 10229
Relative Fluorescence of Transfection of HuVec Cells (RF) (HuVec Cells): 9067
Relative Fluorescence of Transfection of Human Fibroblast Cells (RF) (Human Fibroblast Cells): 11771
Relative Fluorescence of Transfection of NL-1 iPS Cells (RF) (NL-1 iPS Cells): 14524
Relative Fluorescence of Transfection of HeLa Cells (RF) (HeLa Cells [1]): 8944

256 (RQVFQVAYIIIKA) [compound 256]
transfection expression and % cells transfected over the no peptide control (some examined cell types): increased transfection expression and the % cells transfected
Relative Fluorescence of Transfection of C2C12 Cells (RF) (C2C12 Cells): 3207
Relative Fluorescence of Transfection of Jurkat Cells (RF) (Jurkat Cells): 3322
Relative Fluorescence of Transfection of HuVec Cells (RF) (HuVec Cells): 3030
Relative Fluorescence of Transfection of Human Fibroblast Cells (RF) (Human Fibroblast Cells): 2656
Relative Fluorescence of Transfection of NL-1 iPS Cells (RF) (NL-1 iPS Cells): 1825
Relative Fluorescence of Transfection of HeLa Cells (RF) (HeLa Cells [1]): 2243

359 (KAFDITYVRLKF) [compound 359]
transfection expression and % cells transfected over the no peptide control (some examined cell types): increased transfection expression and the % cells transfected
Relative Fluorescence of Transfection of C2C12 Cells (RF) (C2C12 Cells): 5693
Relative Fluorescence of Transfection of Jurkat Cells (RF) (Jurkat Cells): 1880
Relative Fluorescence of Transfection of HuVec Cells (RF) (HuVec Cells): 3024
Relative Fluorescence of Transfection of Human Fibroblast Cells (RF) (Human Fibroblast Cells): 3206
Relative Fluorescence of Transfection of NL-1 iPS Cells (RF) (NL-1 iPS Cells): 5548
Relative Fluorescence of Transfection of HeLa Cells (RF) (HeLa Cells [1]): 3136

352 (RIQNLLKITNLRIKFVK) [compound 352]
transfection expression and % cells transfected over the no peptide control (some examined cell types): increased transfection expression and the % cells transfected
Relative Fluorescence of Transfection of C2C12 Cells (RF) (C2C12 Cells): 3324
Relative Fluorescence of Transfection of Jurkat Cells (RF) (Jurkat Cells): 3150
Relative Fluorescence of Transfection of HuVec Cells (RF) (HuVec Cells): 3130
Relative Fluorescence of Transfection of Human Fibroblast Cells (RF) (Human Fibroblast Cells): 3059
Relative Fluorescence of Transfection of NL-1 iPS Cells (RF) (NL-1 iPS Cells): 11628
Relative Fluorescence of Transfection of HeLa Cells (RF) (HeLa Cells [1]): 32126

345 (TAGSCLRKFSTMFLF) [compound 345]
transfection expression and % cells transfected over the no peptide control (some examined cell types): increased transfection expression and the % cells transfected
Relative Fluorescence of Transfection of C2C12 Cells (RF) (C2C12 Cells): 6569
Relative Fluorescence of Transfection of Jurkat Cells (RF) (Jurkat Cells): 2462
Relative Fluorescence of Transfection of HuVec Cells (RF) (HuVec Cells): 2939
Relative Fluorescence of Transfection of Human Fibroblast Cells (RF) (Human Fibroblast Cells): 2816
Relative Fluorescence of Transfection of NL-1 iPS Cells (RF) (NL-1 iPS Cells): 7836
Relative Fluorescence of Transfection of HeLa Cells (RF) (HeLa Cells [1]): 8493

205 (AASIKVAVSADR) [compound 205]
transfection expression and % cells transfected over the no peptide control (some examined cell types): increased transfection expression and the % cells transfected
Relative Fluorescence of Transfection of C2C12 Cells (RF) (C2C12 Cells): 2102
Relative Fluorescence of Transfection of Jurkat Cells (RF) (Jurkat Cells): 2298
Relative Fluorescence of Transfection of HuVec Cells (RF) (HuVec Cells): 8309
Relative Fluorescence of Transfection of Human Fibroblast Cells (RF) (Human Fibroblast Cells): 8550
Relative Fluorescence of Transfection of NL-1 iPS Cells (RF) (NL-1 iPS Cells): 13140
Relative Fluorescence of Transfection of HeLa Cells (RF) (HeLa Cells [1]): 26368

239 (KNSFMALYLSKGRLVFALG) [compound 239]
transfection expression and % cells transfected over the no peptide control (some examined cell types): increased transfection expression and the % cells transfected
Relative Fluorescence of Transfection of C2C12 Cells (RF) (C2C12 Cells): 10620
Relative Fluorescence of Transfection of Jurkat Cells (RF) (Jurkat Cells): 2343
Relative Fluorescence of Transfection of HuVec Cells (RF) (HuVec Cells): 1404
Relative Fluorescence of Transfection of Human Fibroblast Cells (RF) (Human Fibroblast Cells): 4084
Relative Fluorescence of Transfection of NL-1 iPS Cells (RF) (NL-1 iPS Cells): 4129
Relative Fluorescence of Transfection of HeLa Cells (RF) (HeLa Cells [1]): 2717

501 (DLGTAGSCLRRFSTM) [compound 501]
transfection expression and % cells transfected over the no peptide control (some examined cell types): increased transfection expression and the % cells transfected
Relative Fluorescence of Transfection of C2C12 Cells (RF) (C2C12 Cells): 5913
Relative Fluorescence of Transfection of Jurkat Cells (RF) (Jurkat Cells): 12350
Relative Fluorescence of Transfection of Human Fibroblast Cells (RF) (Human Fibroblast Cells): 9473
Relative Fluorescence DOTMA/SEQ ID NO: 72/Peptide, HeLa Cells (RF) (HeLa Cells [2]; 0.1 μL of DOTMA/SEQ ID NO: 72/Peptide in well of a 96 well plate): 23571
Relative Fluorescence DOTMA/SEQ ID NO: 72/Peptide, HeLa Cells (RF) (HeLa Cells [2]; 0.2 μL of DOTMA/SEQ ID NO: 72/Peptide in well of a 96 well plate): 23993
Relative Fluorescence DOTMA/SEQ ID NO: 72/Peptide, HeLa Cells (RF) (HeLa Cells [2]; 0.3 μL of DOTMA/SEQ ID NO: 72/Peptide in well of a 96 well plate): 20410
Relative Fluorescence DOTMA/SEQ ID NO: 72/Peptide, HeLa Cells (RF) (HeLa Cells [2]; 0.4 μL of DOTMA/SEQ ID NO: 72/Peptide in well of a 96 well plate): 14749
